From US20090324624A1, “Chitin micro-particles as an adjuvant” (priority 2006, published 2009)

Assays:
Assay type in all cases: cell-based, mouse
[1] = tested on: chitin phagosome-associated p38 and ERK1/2; assay: Phagosomal (chitin particle-associated) MAPK phosphorylation; conditions: 10, 20 and 40 min
Procedure: FIG. 14 is a series of photographs of gels showing Phagosomal localization of MAPK proteins. MBCD- and saline-treated MØ were stimulated with 100 μg/ml 1-10 μm chitin particles at 37° C. for 10, 20 or 40 min. Chitin particle-associated proteins were isolated and extracted as described in Example 3. Particle-associated proteins derived from 2×10^6 MØ as well as whole cell proteins were separated on SDS-11% polyacrylamide gel and electroblotted to PVDF membrane. The data shown are representative of two independent experiments.
MBCD- or saline-treated MØ (2×10^6/ml) were stimulated with 100 μg/ml 1-10 μm chitin particles at 37° C. for 10, 20, or 40 min, washed with saline, suspended in homogenization buffer (50 mM Tris-HCl, pH 7.5, 0.32 M sucrose, 10 mM NaF, 1 mM Na3VO4, 5 mM EDTA, 1:500 protease inhibitor cocktail [Sigma]), and homogenized by sonication (20 s). […] Total and phosphorylated p38 and ERK1/2 as well as lysosome-associated membrane protein-1 (LAMP-1) were detected by western blotting with specific antibodies as described above. […]
The extent of phosphorylation of MAPK associated with intracellular chitin particles in MBCD-treated and saline-treated MØ was determined. […] MAPKs p38 and ERK1/2 and the respective phosphorylated forms were detected in the particle-associated fractions at 10, 20 and 40 min (FIG. 14). […] Phosphorylated JNK was not detected in the particle-associated fraction.

[2] = tested on: scavenger receptor A (SR-A); assay: Surface expression of MØ antigens, cytometry: SR-A; conditions: 5 mM MBCD, 1 hr at 37°
[3] = tested on: mannose receptor (MR); assay: Surface expression of MØ antigens, cytometry: MR; conditions: 5 mM MBCD, 1 hr at 37°; 2nd antibody control 7.0
[4] = tested on: RAW 264.7 MØ; assay: Cell-surface binding of FITC-chitin particles; conditions: MBCD-treated vs saline-treated MØ
Procedure: For chitin binding and phagocytosis assays, 1-10 μm chitin particles were labeled with fluorescein isothiocyanate (FITC). Particles (10 mg) and FITC (0.1 mg) were mixed and incubated in 0.1 M NaHCO3 at 22° C. for 2 h. Glycine (final 1 M) was added to bind free FITC, after which labeled particles were washed and suspended in saline at 10 mg/ml. To assess cell-surface binding of chitin, MØ were incubated with 100 μg/ml FITC-chitin particles on ice for 30 min. Free particles were removed by washing three times, and cellular fluorescence was measured cytometrically (BD FACSCalibur system with CELL Quest™ acquisition plus analysis program; Becton-Dickinson Immunocytometry Systems, San Jose, Calif.). To confirm that MØ binding to chitin particles was not altered by FITC, an excess of unlabeled particles (1,000 μg/ml) was used to compete with FITC-chitin.
It was also determined whether cholesterol depletion modifies MØ binding and internalization of FITC-chitin microparticles. […] Internalization of FITC-chitin particles at 37° C. was analyzed following quenching of unphagocytosed FITC-chitin. The magnitude of phagocytosis is similar for MBCD- and saline-treated MØ at 20 min: 12 and 12%, respectively.

[5] = tested on: IL-10 mRNA; assay: IL-10 mRNA expression in RAW264.7 MØ (RT-PCR)
[6] = tested on: Toll-like receptor 4 (TLR4); assay: Surface expression of MØ antigens, cytometry: TLR4; conditions: 5 mM MBCD, 1 hr at 37°; 2nd antibody control 7.0
[7] = tested on: RAW 264.7 MØ; assay: TNF-α production by MBCD- or saline-treated MØ (ELISA); conditions: for increase in TNF-α production in response to chitin particles: 1 mM MBCD
[8] = tested on: F4/80; assay: Surface expression of MØ antigens, cytometry: F4/80; conditions: 5 mM MBCD, 1 hr at 37°
[9] = tested on: COX-2; assay: COX-2 expression and PGE2 release by MBCD- or saline-treated MØ
[10] = tested on: Fcγ receptor II/III (FcγR); assay: Surface expression of MØ antigens, cytometry: FcγR; conditions: 5 mM MBCD, 1 hr at 37°
Procedure: For evaluation of phagocytosis, MØ were incubated with 100 μg/ml FITC-chitin particles at 37° C. for 20 or 40 min. Fluorescence of unphagocytosed FITC-chitin was quenched with 50 mM acetate-buffered saline (pH 4.5) containing 2 mg/ml trypan blue, and the fluorescence intensity of MØ with intracellular FITC-chitin particles was measured cytometrically. The presence of intracellular FITC-chitin particles was further confirmed by fluorescence microscopy (Provis AX70 Microscope with MagnaFire, Olympus, Center Valley, Pa.). Expression of F4/80, Mac-1, FcγR, SR-A, TLR4, or MR on MØ was determined cytometrically.
The effect of cholesterol depletion on expression of the selected MØ surface antigens F4/80, Mac-1, FcγR, SR-A, TLR4, and MR was determined. […] The expression of TLR4 and MR were not altered by MBCD. The values for mean fluorescence intensity were consistent with the effects of MBCD on the expression of MØ antigens (Table 3). Therefore, MBCD at 5 mM or less was used for further experiments. All studies of chitin stimulation in the presence of MBCD were terminated within 6 h.

[11] = tested on: Mac-1
Mac-1, sequence (P05555 17-1153): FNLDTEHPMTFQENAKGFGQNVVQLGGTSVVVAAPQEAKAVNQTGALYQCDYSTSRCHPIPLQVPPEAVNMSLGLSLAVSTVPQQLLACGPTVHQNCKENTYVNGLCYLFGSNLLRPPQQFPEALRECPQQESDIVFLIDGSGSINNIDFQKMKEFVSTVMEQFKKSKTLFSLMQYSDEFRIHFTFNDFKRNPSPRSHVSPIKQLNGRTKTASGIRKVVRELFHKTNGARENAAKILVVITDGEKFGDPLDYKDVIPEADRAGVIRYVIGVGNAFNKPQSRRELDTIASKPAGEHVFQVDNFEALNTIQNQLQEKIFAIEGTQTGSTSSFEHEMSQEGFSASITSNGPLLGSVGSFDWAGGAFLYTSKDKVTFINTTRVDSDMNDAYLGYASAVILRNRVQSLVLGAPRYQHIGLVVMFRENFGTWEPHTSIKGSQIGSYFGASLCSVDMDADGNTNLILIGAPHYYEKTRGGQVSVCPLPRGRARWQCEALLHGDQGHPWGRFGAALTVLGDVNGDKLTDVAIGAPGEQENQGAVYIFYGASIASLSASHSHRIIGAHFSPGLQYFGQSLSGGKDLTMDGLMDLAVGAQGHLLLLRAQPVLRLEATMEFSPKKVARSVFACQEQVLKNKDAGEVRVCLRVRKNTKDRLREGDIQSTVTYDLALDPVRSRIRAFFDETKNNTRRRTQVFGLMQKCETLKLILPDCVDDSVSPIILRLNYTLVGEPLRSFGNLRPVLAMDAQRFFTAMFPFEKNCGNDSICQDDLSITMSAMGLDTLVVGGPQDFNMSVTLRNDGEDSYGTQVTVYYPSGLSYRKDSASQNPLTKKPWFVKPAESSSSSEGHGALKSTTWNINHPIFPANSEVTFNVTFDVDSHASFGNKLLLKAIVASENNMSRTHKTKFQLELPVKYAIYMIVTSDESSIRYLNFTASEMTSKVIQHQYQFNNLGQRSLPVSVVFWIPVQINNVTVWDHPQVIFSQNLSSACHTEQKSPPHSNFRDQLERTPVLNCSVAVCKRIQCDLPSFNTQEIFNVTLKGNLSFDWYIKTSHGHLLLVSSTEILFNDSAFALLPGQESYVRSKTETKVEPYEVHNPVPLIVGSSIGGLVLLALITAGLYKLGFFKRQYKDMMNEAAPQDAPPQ

## methyl-β-cyclodextrin [MBCD]
[1]
  relative amounts of chitin-associated phosphorylated MAPK, MBCD- vs saline-treated cells (FIG. 14): greater
[2]
  % positive cells in M1, SR-A: 81%
[2]; 2nd antibody control 7.0
  MFI, SR-A: 32
[3]
  MFI, MR: 73
[4]
  effect of MBCD treatment on MØ binding to FITC-chitin particles: not significantly altered
[5]
  CpG-ODN-induced IL-10 mRNA after MBCD treatment: not increased
[5]; 6 h
  chitin particle-induced IL-10 mRNA expression after MBCD treatment: did not result in IL-10 mRNA expression
[6]
  MFI, TLR4: 23
[7]; 20 μg/ml chitin particles
  increase in TNF-α production in response to chitin particles: 3 fold
[7]; 100 μg/ml chitin particles
  increase in TNF-α production in response to chitin particles: 1.8 fold
[7]; 5 mM MBCD
  TNF-α production, MBCD alone: enhanced slightly but significantly
[8]
  % positive cells in M1, F4/80: 69%
[8]; 2nd antibody control 7.0
  MFI, F4/80: 17
[9]; 1 mM MBCD
  CpG-ODN-induced COX-2 expression or PGE2 release: did not enhance
[9]; 5 mM MBCD
  COX-2 expression, MBCD alone: induced
  PGE2 release vs MØ treated with saline: not different
[10]
  % positive cells in M1, FcγR: 65%
[10]; 2nd antibody control 7.0
  MFI, FcγR: 14
[11]
  % positive cells in M1, Mac-1: 81%
  MFI, Mac-1: 36
